Source: ChEMBL document CHEMBL3352684, “Discovery of MK-3697: a selective orexin 2 receptor antagonist (2-SORA) for the treatment of insomnia” (Bioorg Med Chem Lett, 2014)
The source made the active and inactive calls. The rule behind the calls is not given here.

Assays:
[1] = Tmax in mouse at 100 mg/kg, po; format: ADME, organism-based; design: dose 100 mg/kg, route oral; conditions: in vivo
Orexin receptor type 2 [2] = target: T1, Orexin receptor type 2 (Homo sapiens, UniProt O43614); test: Antagonist activity at human OX2R expressed in CHO cells assessed as inhibition of Ala-6,12-orexinA-induced effect after 5 mins by FLIPR assay; format: cell-based
T1 sequence (O43614 whole entry): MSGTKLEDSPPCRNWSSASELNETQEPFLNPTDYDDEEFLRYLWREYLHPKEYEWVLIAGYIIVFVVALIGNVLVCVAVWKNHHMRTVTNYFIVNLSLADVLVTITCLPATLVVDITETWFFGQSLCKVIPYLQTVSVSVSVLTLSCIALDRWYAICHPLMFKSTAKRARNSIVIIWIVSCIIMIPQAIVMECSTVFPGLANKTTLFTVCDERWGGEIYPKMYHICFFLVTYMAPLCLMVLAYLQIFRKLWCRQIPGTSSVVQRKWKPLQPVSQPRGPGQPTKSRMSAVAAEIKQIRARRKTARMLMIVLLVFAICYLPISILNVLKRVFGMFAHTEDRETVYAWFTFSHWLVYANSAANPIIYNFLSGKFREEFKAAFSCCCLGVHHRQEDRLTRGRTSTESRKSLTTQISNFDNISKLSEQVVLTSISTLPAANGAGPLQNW

[3] = Drug uptake in Sprague-Dawley rat CSF at 15 mg/kg, po; format: ADME, organism-based, Cerebrospinal fluid; design: dose 15 mg/kg, route oral; conditions: in vivo, read-out: Drug uptake
Canis familiaris = test: Increase in slow wave sleep in dog at 3 mg/kg, po after 2 hrs; format: functional, organism-based; design: dose 3 mg/kg; conditions: Canis lupus familiaris
[4] = Lipophilicity, log D of the compound; format: physicochemical; conditions: octanol/water
Mus musculus [5] = test: Increase in slow wave sleep in mouse at 100 mg/kg, po after 2 hrs; format: functional, organism-based; design: dose 100 mg/kg
[6] = Clearance in dog with cassette dosing; format: ADME, organism-based, Canis lupus familiaris; conditions: in vivo
[7] = Cmax in Sprague-Dawley rat at 15 mg/kg, po; format: ADME, organism-based; design: dose 15 mg/kg, route oral; conditions: in vivo
Mus musculus [8] = test: Reduction in active wake sleep in OX2R-knockout mouse at 100 mg/kg, po after 2 hrs; format: functional, organism-based; design: dose 100 mg/kg
[9] = target: T2, Nuclear receptor subfamily 1 group I member 2 (Homo sapiens, UniProt O75469); test: Activation of PXR (unknown origin) at 30 uM relative to rifampicin
T2 sequence (O75469 whole entry): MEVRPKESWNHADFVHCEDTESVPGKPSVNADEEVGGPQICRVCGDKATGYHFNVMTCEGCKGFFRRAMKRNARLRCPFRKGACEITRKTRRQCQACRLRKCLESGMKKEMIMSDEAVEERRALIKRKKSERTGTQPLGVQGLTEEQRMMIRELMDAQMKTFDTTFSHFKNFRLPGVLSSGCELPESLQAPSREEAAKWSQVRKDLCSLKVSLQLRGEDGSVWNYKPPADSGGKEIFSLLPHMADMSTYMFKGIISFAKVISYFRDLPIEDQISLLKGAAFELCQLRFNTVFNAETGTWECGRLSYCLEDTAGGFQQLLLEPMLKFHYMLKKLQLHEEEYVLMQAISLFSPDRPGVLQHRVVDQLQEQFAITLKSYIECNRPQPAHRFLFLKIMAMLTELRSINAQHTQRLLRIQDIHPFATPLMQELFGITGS

[10] = AUC in Sprague-Dawley rat at 15 mg/kg, po; format: ADME, organism-based; design: dose 15 mg/kg, route oral; conditions: plasma
[11] = Tmax in rat at dog at 3 mg/kg, po; format: ADME, organism-based, Canis lupus familiaris; design: dose 3 mg/kg, route oral; conditions: in vivo
[12] = Half life in dog at 1 mg/kg, iv; format: ADME, organism-based, Canis lupus familiaris; design: dose 1 mg/kg, route intravenous; conditions: in vivo
[13] = Clearance in dog at 1 mg/kg, iv; format: ADME, organism-based, Canis lupus familiaris; design: dose 1 mg/kg, route intravenous; conditions: in vivo
Cytochrome P450 2D6 = Cytochrome P450 2D6 (Homo sapiens, UniProt P10635); test: Reversible inhibition of CYP2D6 (unknown origin); format: ADME
Sequence of Cytochrome P450 2D6 (P10635 whole entry): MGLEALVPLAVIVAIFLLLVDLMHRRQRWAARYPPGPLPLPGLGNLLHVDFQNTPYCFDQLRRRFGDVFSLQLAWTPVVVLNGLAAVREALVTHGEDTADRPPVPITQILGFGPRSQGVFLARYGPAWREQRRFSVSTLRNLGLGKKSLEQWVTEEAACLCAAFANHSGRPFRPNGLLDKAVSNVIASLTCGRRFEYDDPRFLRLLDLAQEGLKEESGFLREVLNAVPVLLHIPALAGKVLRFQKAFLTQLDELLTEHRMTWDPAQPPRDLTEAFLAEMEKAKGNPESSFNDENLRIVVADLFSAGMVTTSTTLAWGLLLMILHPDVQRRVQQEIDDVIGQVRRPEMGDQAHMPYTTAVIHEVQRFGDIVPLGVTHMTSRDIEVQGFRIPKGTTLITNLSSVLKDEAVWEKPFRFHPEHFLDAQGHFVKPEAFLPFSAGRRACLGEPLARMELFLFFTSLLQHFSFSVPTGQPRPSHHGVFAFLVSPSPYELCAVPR

Rattus norvegicus [14] = species on record: Rattus norvegicus; test: Ex vivo receptor occupancy at human OX2R expressed in transgenic rat at CSF concentration of 40 nM; format: functional
[15] = target: T3, Orexin/Hypocretin receptor type 1 (Mus musculus) (UniProt P58307); test: Antagonist activity at mouse OX1R by FLIPR assay
T3 sequence (whole entry): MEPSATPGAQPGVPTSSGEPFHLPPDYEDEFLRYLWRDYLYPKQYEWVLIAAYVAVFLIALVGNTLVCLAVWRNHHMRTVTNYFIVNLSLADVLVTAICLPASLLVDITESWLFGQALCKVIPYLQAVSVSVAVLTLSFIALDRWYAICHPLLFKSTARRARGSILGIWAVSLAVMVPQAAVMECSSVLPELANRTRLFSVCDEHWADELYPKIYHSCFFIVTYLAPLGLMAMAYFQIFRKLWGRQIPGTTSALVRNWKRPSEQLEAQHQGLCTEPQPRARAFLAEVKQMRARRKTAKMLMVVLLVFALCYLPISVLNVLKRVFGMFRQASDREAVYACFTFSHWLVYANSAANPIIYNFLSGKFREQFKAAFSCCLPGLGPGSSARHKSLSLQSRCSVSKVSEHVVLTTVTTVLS

[16] = Drug uptake in dog CSF at 3 mg/kg, po; format: ADME, organism-based, Canis lupus familiaris, Cerebrospinal fluid; design: dose 3 mg/kg, route oral; conditions: in vivo, read-out: Drug uptake
[17] = Plasma protein binding in Sprague-Dawley rat; format: ADME, cell-free; conditions: read-out: PPB (converted)
[18] = Volume of distribution at steady state in dog at 1 mg/kg, iv; format: ADME, organism-based, Canis lupus familiaris; design: dose 1 mg/kg, route intravenous; conditions: in vivo, read-out: Vdss
[19] = Volume of distribution at steady state in rat at 2 mg/kg, iv; format: ADME, organism-based; design: dose 2 mg/kg, route intravenous; conditions: in vivo, read-out: Vdss
[20] = target: T2, Nuclear receptor subfamily 1 group I member 2; test: Activation of PXR (unknown origin)
[21] = Clearance in rat at 2 mg/kg, iv; format: ADME, organism-based; design: dose 2 mg/kg, route intravenous; conditions: in vivo
Mus musculus [22] = test: Reduction in active wake sleep in mouse at 100 mg/kg, po after 2 hrs; format: functional, organism-based; design: dose 100 mg/kg
Orexin receptor type 2 [23] = target: T1, Orexin receptor type 2; test: Displacement of (S)-N-(2-(1H-pyrrol-1-yl)phenyl)-1-(2-([3H]-1-methyl-1H-benzo[d]imidazol-2-ylthio)acetyl)pyrrolidine-2-carboxamide from human OX2R expressed in CHO cells after 3 hrs by topcount analysis; format: cell-based
Rattus norvegicus [24] = test: Increase in slow wave sleep in Sprague-Dawley rat at 15 mg/kg, po after 2 hrs; format: functional, organism-based; design: dose 15 mg/kg
[25] = Half life in rat at 2 mg/kg, iv; format: ADME, organism-based; design: dose 2 mg/kg, route intravenous; conditions: in vivo
[26] = Cmax in dog at 3 mg/kg, po; format: ADME, organism-based, Canis lupus familiaris; design: dose 3 mg/kg, route oral; conditions: in vivo
[27] = Drug uptake in mouse CSF at 100 mg/kg, po after 2 hrs; format: ADME, organism-based; design: dose 100 mg/kg, route oral; conditions: cerebrospinal fluid, read-out: Drug uptake
[28] = Cmax in mouse at 100 mg/kg, po; format: ADME, organism-based; design: dose 100 mg/kg, route oral; conditions: in vivo

SMILES: COc1ccc(CNC(=O)c2cc(-c3cncc(C)c3)ncc2-c2nccs2)nc1OC
- Tmax [1]: 120 min
- IC50 (Orexin receptor type 2 [2]): 16 nM
- concentration [3]: 0.9 µM
- Activity (Canis familiaris): Active
- logD [4]: 1.9
- Activity (Mus musculus [5]): Active
- clearance [6]: 12 mL/min/kg
- Cmax [7]: 5.3 µM
- Activity (Mus musculus [8]): inactive
- Activity [9]: 16%
- AUC [10]: 17.2 µM·h
- Tmax [11]: 42 min
- half-life [12]: 72 min
- clearance [13]: 7.2 mL/min/kg
- IC50 (Cytochrome P450 2D6): > 50000 nM
- Occ (Rattus norvegicus [14]): 90%
- INH [15]: 27.2 µM
- concentration [16]: 0.46 µM
- fraction unbound [17]: 0.164
- Vd [18]: 0.7 L/kg
- Vd [19]: 1.2 L/kg
- EC50 [20]: > 30000 nM
- clearance [21]: 40.7 mL/min/kg
- Activity (Mus musculus [22]): Active
- Ki (Orexin receptor type 2 [23]): 1.1 nM
- Activity (Rattus norvegicus [24]): Active
- half-life [25]: 24 min
- Cmax [26]: 2.7 µM
- concentration at 2 h [27]: 4.9 µM
- Cmax [28]: 55.3 µM
